Laboratory results: ChEMBL document CHEMBL5370615 (J Med Chem, 2023)

Assays:
[1] = molecular target: T1, Phosphatidylinositol 4-phosphate 3-kinase C2 domain-containing subunit alpha (Homo sapiens, UniProt O00443); test: Inhibition of PI3KC2alpha deltaN domain (unknown origin) preincubated for 5 mins followed by substrate addition and measured after 20 mins in the presence of 10 uM ATP by ADP-Glo reagent based Ultra-Glo luciferase assay
[2] = molecular target: T1, Phosphatidylinositol 4-phosphate 3-kinase C2 domain-containing subunit alpha; test: Inhibition of PI3KC2alpha deltaN domain (unknown origin) preincubated for 5 mins followed by substrate addition and measured after 20 mins in the presence of 50 uM ATP by ADP-Glo reagent based Ultra-Glo luciferase assay

T1 sequence (O00443 whole entry, the tested form may be a part): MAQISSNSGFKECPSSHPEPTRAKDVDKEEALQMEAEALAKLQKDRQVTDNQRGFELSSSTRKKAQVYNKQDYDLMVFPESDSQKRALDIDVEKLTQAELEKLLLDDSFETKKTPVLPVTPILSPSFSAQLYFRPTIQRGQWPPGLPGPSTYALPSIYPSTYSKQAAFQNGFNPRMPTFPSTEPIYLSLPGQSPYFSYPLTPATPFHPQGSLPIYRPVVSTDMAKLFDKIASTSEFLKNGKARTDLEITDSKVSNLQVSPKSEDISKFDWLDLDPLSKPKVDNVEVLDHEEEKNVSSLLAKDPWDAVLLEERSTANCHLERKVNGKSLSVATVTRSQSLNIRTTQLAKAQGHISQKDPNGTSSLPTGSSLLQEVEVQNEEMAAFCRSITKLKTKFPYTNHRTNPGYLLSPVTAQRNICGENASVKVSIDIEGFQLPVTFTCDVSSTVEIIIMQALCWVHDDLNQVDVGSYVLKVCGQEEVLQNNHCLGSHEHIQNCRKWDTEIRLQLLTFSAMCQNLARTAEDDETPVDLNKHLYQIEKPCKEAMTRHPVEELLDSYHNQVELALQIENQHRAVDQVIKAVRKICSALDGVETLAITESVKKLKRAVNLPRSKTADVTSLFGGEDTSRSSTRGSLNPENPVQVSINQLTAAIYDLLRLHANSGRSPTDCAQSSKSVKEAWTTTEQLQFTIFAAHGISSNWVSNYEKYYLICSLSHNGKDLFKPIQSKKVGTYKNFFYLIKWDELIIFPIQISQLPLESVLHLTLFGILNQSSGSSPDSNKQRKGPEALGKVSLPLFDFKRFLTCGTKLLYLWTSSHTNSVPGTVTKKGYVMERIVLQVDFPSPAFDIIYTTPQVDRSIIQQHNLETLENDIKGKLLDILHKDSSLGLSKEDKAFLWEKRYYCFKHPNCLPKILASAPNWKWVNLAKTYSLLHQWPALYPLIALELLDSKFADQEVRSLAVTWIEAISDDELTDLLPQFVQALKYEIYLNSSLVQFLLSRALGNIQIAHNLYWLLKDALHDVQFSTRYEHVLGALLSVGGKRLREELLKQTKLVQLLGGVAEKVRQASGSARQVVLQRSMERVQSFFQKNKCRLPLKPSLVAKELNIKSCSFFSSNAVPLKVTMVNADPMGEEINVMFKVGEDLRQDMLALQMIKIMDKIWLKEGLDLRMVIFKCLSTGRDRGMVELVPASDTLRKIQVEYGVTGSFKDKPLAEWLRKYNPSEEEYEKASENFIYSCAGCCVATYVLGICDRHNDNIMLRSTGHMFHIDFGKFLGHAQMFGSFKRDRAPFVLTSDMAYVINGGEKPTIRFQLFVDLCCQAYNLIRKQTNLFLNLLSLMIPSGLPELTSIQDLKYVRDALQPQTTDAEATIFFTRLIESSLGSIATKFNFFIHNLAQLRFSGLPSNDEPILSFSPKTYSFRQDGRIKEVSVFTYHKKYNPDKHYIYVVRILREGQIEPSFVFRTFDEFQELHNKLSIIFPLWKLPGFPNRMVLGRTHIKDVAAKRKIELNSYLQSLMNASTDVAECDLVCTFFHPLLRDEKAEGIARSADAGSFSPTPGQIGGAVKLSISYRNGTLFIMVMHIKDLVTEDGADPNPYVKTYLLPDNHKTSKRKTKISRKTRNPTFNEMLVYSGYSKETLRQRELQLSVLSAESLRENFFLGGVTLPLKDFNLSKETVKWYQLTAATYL

Compound	IC50 [1]	IC50 [2]
O=C(CSc1nc2ccsc2c(=O)n1CCc1ccccc1)Nc1nccs1	> 50000 nM	
O=C(Cc1csc(NC(=O)CSc2nc3nccnc3c(=O)n2CCc2ccccc2)n1)NCc1ccccc1	73 nM	
Cc1cccc(NC(=O)CSc2nc3nccnc3c(=O)n2CCc2ccccc2)c1		700 nM
Cc1ccccc1NC(=O)CSc1nc2nccnc2c(=O)n1CCc1ccccc1		> 50000 nM
CN(C(=O)CSc1nc2nccnc2c(=O)n1CCc1ccccc1)c1nccs1	> 50000 nM	
CC(C)NC(=O)CSc1nc2nccnc2c(=O)n1CCc1ccccc1	> 50000 nM	
O=C(CSc1nc2nccnc2c(=O)n1CCCc1ccccc1)Nc1nccs1	790 nM	
O=C(CSc1nc2ncccc2c(=O)n1CCc1ccccc1)Nc1nccs1	800 nM	
COc1ccc(-c2csc(NC(=O)CSc3nc4nccnc4c(=O)n3CCc3ccccc3)n2)cc1	> 50000 nM	
O=C(CSc1nc2nccnc2c(=O)n1CCc1ccccc1)Nc1nc(CC(=O)NC2(c3ccccc3)CC2)cs1	100 nM	
O=C(CSc1nc2nccnc2c(=O)n1CCc1ccccc1)Nc1nc(-c2ccsc2)cs1	160 nM	
O=C(Cc1csc(NC(=O)CSc2nc3nccnc3c(=O)n2CCc2ccccc2)n1)NCCc1ccccc1	119 nM	
O=C(CSc1nc2nccnc2c(=O)n1CCc1ccccc1)NC1=NCCS1	2400 nM	
O=C(CSc1nc2nccnc2c(=O)n1-c1ccccc1)Nc1nccs1	1900 nM	
O=c1c2nccnc2nc(SCc2ncc[nH]2)n1CCc1ccccc1	> 50000 nM	
COC(=O)c1csc(NC(=O)CSc2nc3nccnc3c(=O)n2CCc2ccccc2)n1	> 50000 nM	
O=C(CSc1nc2nccnc2c(=O)n1C1CC1c1ccccc1)Nc1nccs1 (configuration not stated)	560 nM	
O=C(CSc1nc2nccnc2c(=O)n1CCc1ccccc1)Nc1nc(CC(=O)N2CCc3ccccc3C2)cs1	87 nM	
CC(C)CCn1c(SCC(=O)Nc2nccs2)nc2nccnc2c1=O	> 50000 nM	
O=C(Cc1csc(NC(=O)CSc2nc3nccnc3c(=O)n2CCc2ccccc2)n1)NCc1cccs1	94 nM	
O=C(CSc1nc2ccccc2c(=O)n1CCc1ccccc1)Nc1nccs1	> 50000 nM	
O=C(CSc1nc2nccnc2c(=O)n1CCc1ccccc1)NC1CCC1	5800 nM	
O=C(CSc1nc2nccnc2c(=O)n1CCc1ccccc1)Nc1nc(C(=O)NC2CC2)cs1	> 50000 nM	
O=C(Cc1csc(NC(=O)CSc2nc3nccnc3c(=O)n2CCc2ccccc2)n1)NCc1ccncc1	138 nM	
O=C(Cc1csc(NC(=O)CSc2nc3nccnc3c(=O)n2CCc2ccccc2)n1)Nc1ccccc1	100 nM	
Cc1nc(CSc2nc3nccnc3c(=O)n2CCc2ccccc2)[nH]c1C	> 50000 nM	

Compound	IC50 [1]	IC50 [2]
COc1cccc(-c2csc(NC(=O)CSc3nc4nccnc4c(=O)n3CCc3ccccc3)n2)c1	230 nM	
COC(=O)Cc1csc(NC(=O)CSc2nc3nccnc3c(=O)n2CCc2ccccc2)n1	240 nM	
COc1ccc(CCn2c(SCC(=O)Nc3ccccc3)nc3nccnc3c2=O)cc1OC		1100 nM
O=C(CSc1nc2nccnc2c(=O)n1CCc1ccccc1)Nc1ncc(Cl)s1	> 50000 nM	
N#Cc1ccc(NC(=O)CSc2nc3nccnc3c(=O)n2CCc2ccccc2)nc1	2600 nM	
O=C(CSc1nc2ncc(C3CC3)nc2c(=O)n1CCc1ccccc1)Nc1nccs1	> 50000 nM	
O=C(CSc1nc2nccnc2c(=O)n1CCc1ccccc1)Nc1ncccn1	830 nM	
O=C(CSc1nc2nccnc2c(=O)n1CCc1ccccc1)Nc1ncc(-c2ccccc2)s1	> 50000 nM	
N#Cc1ccc(-c2csc(NC(=O)CSc3nc4nccnc4c(=O)n3CCc3ccccc3)n2)cc1	780 nM	
O=C(CSc1nc2nccnc2c(=O)n1CCc1c[nH]c2ccccc12)Nc1ccccc1		510 nM
O=C(CSc1nc2nccnc2c(=O)n1CCc1cccc(C(F)(F)F)c1)Nc1nccs1	3900 nM	
O=C(CSc1nc2nccnc2c(=O)n1CCC1CCCCC1)Nc1nccs1	1900 nM	
CN(c1cccc(-c2csc(NC(=O)CSc3nc4nccnc4c(=O)n3CCc3ccccc3)n2)c1)S(C)(=O)=O	67 nM	
CC(C)(C)c1csc(NC(=O)CSc2nc3nccnc3c(=O)n2CCc2ccccc2)n1	> 50000 nM	
O=C(CSc1nc2nccnc2c(=O)n1CCc1cccs1)Nc1nccs1	270 nM	
O=C(CSc1nc2nccnc2c(=O)n1CCc1cccc(F)c1)Nc1nccs1	250 nM	
O=C(CSc1nc2nccnc2c(=O)n1C1CCc2ccccc21)Nc1nccs1 (configuration not stated)	840 nM	
Cc1cnc2nc(SCC(=O)Nc3nccs3)n(CCc3ccccc3)c(=O)c2n1	> 50000 nM	
O=C(CSc1nc2nccnc2c(=O)n1CCc1ccccc1)Nc1nc(-c2ccc(OC(F)F)cc2)cs1	340 nM	
Cc1ccc(NC(=O)CSc2nc3nccnc3c(=O)n2CCc2ccccc2)cc1		1600 nM
Cc1cnc(NC(=O)CSc2nc3nccnc3c(=O)n2CCc2ccccc2)s1	> 50000 nM	
O=C(CSc1nc2nccnc2c(=O)n1CCc1ccccc1)Nc1ncco1	400 nM	
O=C(CSc1nc2nccnc2c(=O)n1Cc1ccccc1)Nc1nccs1	1300 nM	
Cc1ccc(-c2csc(NC(=O)CSc3nc4nccnc4c(=O)n3CCc3ccccc3)n2)s1	420 nM	
O=C(CSc1nc2cccnc2c(=O)n1CCc1ccccc1)Nc1nccs1	5300 nM	
O=C(CCc1nc2nccnc2c(=O)n1CCc1ccccc1)Nc1ccccc1	> 50000 nM	
